Measurements as given in ChEMBL document CHEMBL5143618, “Design, synthesis, and antitumor activity evaluation of novel acyl sulfonamide spirodienones” (Bioorg Med Chem, 2022).

Assays:
HeLa = assay: cells; assay type: functional, cell-based; conditions: Homo sapiens, 74 h
Description: Antiproliferative activity against human HeLa cells assessed as inhibition of cell growth measured after 74 hrs by SRB assay

MDA-MB-231 [1] = assay: cells; assay type: functional, cell-based; conditions: Homo sapiens, MDA-MB-231, 74 h
Description: Antiproliferative activity against human MDA-MB-231 cells assessed as inhibition of cell growth measured after 74 hrs by SRB assay

A549 = assay: cells; assay type: functional, cell-based; conditions: Homo sapiens, A549, 74 h
Description: Antiproliferative activity against human A549 cells assessed as inhibition of cell growth measured after 74 hrs by SRB assay

HepG2 = assay: Antiproliferative activity against human HepG2 cells assessed as inhibition of cell growth measured after 74 hrs by SRB assay; assay type: functional, cell-based; conditions: HepG2, 74 h
MDA-MB-231 [2] = assay: Induction of cell cycle arrest in human MDA-MB-231 cells assessed as accumulation of cells in G2/G1 phase at 10 uM incubated for 24 hrs by PI staining based flow cytometry analysis (reference value: 1.80 %); assay type: functional
MDA-MB-231 [3] = assay: Induction of cell cycle arrest in human MDA-MB-231 cells assessed as accumulation of cells in G1 phase at 10 uM incubated for 24 hrs by PI staining based flow cytometry analysis (reference value: 74.44 %); assay type: functional
MDA-MB-231 [4] = assay: Induction of cell cycle arrest in human MDA-MB-231 cells assessed as accumulation of cells in S phase at 10 uM incubated for 24 hrs by PI staining based flow cytometry analysis (reference value: 16.61 %); assay type: functional
MDA-MB-231 [5] = assay: Induction of cell cycle arrest in human MDA-MB-231 cells assessed as accumulation of cells in G2 phase at 10 uM incubated for 24 hrs by PI staining based flow cytometry analysis (reference value: 8.95 %); assay type: functional
MDA-MB-231 [6] = assay: Induction of apoptosis in human MDA-MB-231 cells assessed as necrotic cells at 10 uM incubated for 24 hrs by annexin V-FITC and PI staining based flow cytometry analysis (reference value: 0.68 %); assay type: functional
MDA-MB-231 [7] = assay: Induction of apoptosis in human MDA-MB-231 cells assessed as viable cells at 10 uM incubated for 24 hrs by annexin V-FITC and PI staining based flow cytometry analysis (reference value: 93.6 %); assay type: functional; conditions: read-out: Activity
MDA-MB-231 [8] = assay: Induction of apoptosis in human MDA-MB-231 cells assessed as late apoptotic cells at 10 uM incubated for 24 hrs by annexin V-FITC and PI staining based flow cytometry analysis (reference value: 1.02 %); assay type: functional
MDA-MB-231 [9] = assay: Induction of apoptosis in human MDA-MB-231 cells assessed as early apoptotic cells at 10 uM incubated for 24 hrs by annexin V-FITC and PI staining based flow cytometry analysis (reference value: 4.66 %); assay type: functional
[10] = target: 72 kDa type IV collagenase (Homo sapiens, UniProt P08253); assay: Inhibition of MMP2 (unknown origin) using Mca-PLGLDpaAR fluorescent substrate incubated for 2 hrs by microplate reader method
Sequence of 72 kDa type IV collagenase (P08253 whole entry): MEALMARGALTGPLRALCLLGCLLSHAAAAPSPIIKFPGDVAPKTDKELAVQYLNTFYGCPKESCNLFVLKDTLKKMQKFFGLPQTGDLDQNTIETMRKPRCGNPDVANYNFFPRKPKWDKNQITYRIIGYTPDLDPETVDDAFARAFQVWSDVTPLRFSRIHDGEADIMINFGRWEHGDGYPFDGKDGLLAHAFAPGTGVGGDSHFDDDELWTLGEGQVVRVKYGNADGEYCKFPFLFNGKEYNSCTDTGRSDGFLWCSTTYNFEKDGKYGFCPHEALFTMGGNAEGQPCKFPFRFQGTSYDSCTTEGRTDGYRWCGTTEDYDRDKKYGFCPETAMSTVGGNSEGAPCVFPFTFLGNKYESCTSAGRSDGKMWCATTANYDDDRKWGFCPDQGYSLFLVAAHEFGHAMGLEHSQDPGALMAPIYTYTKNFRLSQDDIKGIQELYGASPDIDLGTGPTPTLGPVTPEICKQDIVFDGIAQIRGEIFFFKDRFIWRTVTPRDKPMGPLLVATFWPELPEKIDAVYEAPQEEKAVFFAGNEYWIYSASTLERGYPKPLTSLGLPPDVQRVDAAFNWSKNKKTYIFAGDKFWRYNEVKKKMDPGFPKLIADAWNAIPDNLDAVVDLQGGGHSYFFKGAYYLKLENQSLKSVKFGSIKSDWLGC

Row | Compound | IC50 (HeLa) [nM] | IC50 (MDA-MB-231 [1]) [nM] | IC50 (A549) [nM] | IC50 (HepG2) [nM] | other results
1 | O=C1C=CC2(C=C1)OCC(=O)N2S(=O)(=O)c1ccccc1C(F)(F)F | 20 | > 10000 | > 10000 | 590 | 
2 | CC1OC2(C=CC(=O)C=C2)N(S(=O)(=O)c2cccs2)C1=O (configuration not stated) | 270 | > 10000 | > 10000 | > 10000 | 
3 | COc1ccc(S(=O)(=O)N2C(=O)COC23C=CC(=O)C=C3)cc1 | 880 | > 10000 | > 10000 | 1620 | 
4 | O=C1C=CC2(C=C1)OCC(=O)N2S(=O)(=O)c1cccs1 | 3420 | 20 | > 10000 | > 10000 | 
5 | COc1ccc(/C=C\c2cc(OC)c(OC)c(OC)c2)cc1O [COMBRETASTATIN A4] |  |  |  |  | Activity (MDA-MB-231 [2]): 1.8%; Activity (MDA-MB-231 [3]): 8.4%; Activity (MDA-MB-231 [4]): 0%; Activity (MDA-MB-231 [5]): 91.6%; Activity (MDA-MB-231 [6]): 0.73%; viability at 10 µM (MDA-MB-231 [7]): 73.7%; Activity (MDA-MB-231 [8]): 4.95%; Activity (MDA-MB-231 [9]): 20.6%
6 | O=C1C=CC2(C=C1)OCC(=O)N2S(=O)(=O)c1ccc(Cl)cc1 | > 10000 | 2800 | > 10000 | 860 | 
7 | O=C1C=CC2(C=C1)OCC(=O)N2S(=O)(=O)c1ccccc1 | > 10000 | > 10000 | > 10000 | > 10000 | 
8 | N#Cc1cccc(S(=O)(=O)N2C(=O)COC23C=CC(=O)C=C3)c1 | 180 | > 10000 | 1910 | > 10000 | 
9 | O=C1C=CC2(C=C1)OCC(=O)N2S(=O)(=O)c1ccc(OC(F)(F)F)cc1 | > 10000 | > 10000 | 40 | > 10000 | 
10 | COc1ccc(S(=O)(=O)N(CC(=O)NO)CC(C)C)cc1 |  |  |  |  | IC50 [10]: 0.59 nM
11 | O=C1C=CC2(C=C1)OCC(=O)N2S(=O)(=O)c1ccccc1OC(F)(F)F | 140 | > 10000 | > 10000 | > 10000 | 
12 | CS(=O)(=O)N1C(=O)COC12C=CC(=O)C=C2 | 7530 | > 10000 | > 10000 | > 10000 | 
13 | O=C1C=CC2(C=C1)OCC(=O)N2S(=O)(=O)c1ccc(F)c(F)c1 | 30 | > 10000 | 50 | > 10000 | 
14 | Cc1ccc(S(=O)(=O)N2C(=O)C(C)OC23C=CC(=O)C=C3)cc1 (configuration not stated) | > 10000 | 1100 | > 10000 | 540 | 
15 | O=C1C=CC2(C=C1)OCC(=O)N2S(=O)(=O)c1ccc(Br)s1 | 30 | > 10000 | 50 | 240 | 
16 | CC(=O)O[C@H]1C(=O)[C@@]2(C)[C@H]([C@H](OC(=O)c3ccccc3)[C@]3(O)C[C@H](OC(=O)[C@H](O)[C@@H](NC(=O)c4ccccc4)c4ccccc4)C(C)=C1C3(C)C)[C@]1(OC(C)=O)CO[C@@H]1C[C@@H]2O [PACLITAXEL] |  |  |  | 13 | 
17 | O=C1C=CC2(C=C1)OCC(=O)N2S(=O)(=O)c1ccc(N2CCCC2=O)cc1 | 880 | > 10000 | 5 | > 10000 | 
18 | O=C1C=CC2(C=C1)OCC(=O)N2S(=O)(=O)c1ccc(C(F)(F)F)cc1 | 770 | 2100 | > 10000 | 750 | 
19 | Cc1ccccc1S(=O)(=O)N1C(=O)COC12C=CC(=O)C=C2 | 3720 | > 10000 | > 10000 | 750 | 
20 | O=C1C=CC2(C=C1)OCC(=O)N2S(=O)(=O)c1cccc(C(F)(F)F)c1 | 570 | > 10000 | 9610 | > 10000 | 
21 | O=C1C=CC2(C=C1)OCC(=O)N2S(=O)(=O)c1ccc([N+](=O)[O-])cc1 | > 10000 | > 10000 | > 10000 | > 10000 | 
